Where two headings read alike, the source gives them in different places.
How the values were obtained:
POSH = target: T1, POSH (Homo sapiens, UniProt Q7Z6J0); assay: Selectivity (% A in 1 μM), ubiquitin ligase activity of POSH; format: biochemical; settings: read-out: Selectivity (% A* in 1 μM) POSH
T1 construct: GST-POSH lot NB81/p.118 3.6 mg/ml; fused on or other part: GST tag, used for detection with anti-GST XL665
T1 sequence (Q7Z6J0 1-269 limits assumed): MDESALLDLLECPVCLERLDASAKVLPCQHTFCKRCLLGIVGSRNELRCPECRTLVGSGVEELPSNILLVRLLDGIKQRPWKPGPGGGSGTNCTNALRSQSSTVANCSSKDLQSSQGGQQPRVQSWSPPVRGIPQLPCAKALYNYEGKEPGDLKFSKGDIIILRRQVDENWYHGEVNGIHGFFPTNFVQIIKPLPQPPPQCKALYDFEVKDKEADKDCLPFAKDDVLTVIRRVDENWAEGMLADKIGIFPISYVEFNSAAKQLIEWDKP
Experimental: Experimental Protocols: 1. HTS Screening Assay Procedure • Microplates 10109D to 10114D compounds at 1 mM. • (Controls in column 1). • All compounds were perchase from ChemBridge corporation: ChemBridge corporation 16981 Via Tazon, Suite G San Diego, Calif. 92127 a. Microplates Labeling • Put labels to 6 PS U-bottom clear microplate. • Put labels to 18 black microplates (triplicats). b. Microplates Preparation • Put 100 μl GST-POSH at 33 nM in wells of the clear PS U-bottom microplates (exept wells A1-D1). • Negative control: place 100 μl dH2O in wells A1-D1. • (Positive control: place 100 μl GST-POSH at 33 nM in wells E1-H1). • Put 8 μl enzymes solution ×4 to black microplates (column 1 to 11). c. Incubation of E3 with Compounds • Transfer 5 μl of compounds (at 1 mM) to the microplates containing 100 μl GST-POSH. • Add 5 μl of DMSO to controls column 1. • Incubation 30 minutes at RT. d. […] 2. […] Microplates Labeling • Put labels to 4 clear PP clear microplate (18.2 μM, 9.1 uM, 1.82 uM, 910 nM,). • Put labels to 5 clear PS U-bottom clear microplate 4.44 μM, 909, 444, 91 and 44 nM) • Put labels to 15 black microplates (triplicates). f. Original Microplate Dilutions • Put DMSO 40 μl to (18.2 μM, 1.82 uM plates) and 20 ul to (9.1 uM, 910 nM plates. • Mix by pipetation the original microplate (3× up and down 45 μl). • Transfer 10 μl of compounds from the original microplate (at 91 μM) to the next microplate (=18.2 μM) on splitting apparatus. • Mix by pipetation the 18.2 uM microplate (3× up and down 45 μl). • Transfer 20 μl of compounds from the 18.2 uM microplate to the next microplate (=9.1 μM) on splitting apparatus. • Mix by pipetation the 9.1 uM microplate (3× up and down 45 μl). • Transfer 10 μl of compounds from the 9.1 uM microplate to the next microplate (=1.82 μM) on splitting apparatus. • Mix by pipetation the 1.82 uM microplate (3× up and down 45 μl). • Transfer 20 μl of compounds from the 1.82 uM microplate to the next microplate (=910 nM) on splitting apparatus • Mix by pipetation. g. Microplates Preparation • Put 123 μl GST-POSH at 33 nM in wells of the 5 clear PS U-bottom clear microplates. • Positive control: place 123 μl GST-POSH at 33 nM in well A12-h12 13 μl DMSO. • Negative control: place 123 μl dH2O in well B1 and 13 μl DMSO. • Put 8 μl enzymes solution ×4 to 15 black microplates. • Controls: put 8 μl enzymes solution ×4 to wells A1 to F1. h. Incubation of POSH with Compounds • Take 7 μl of compounds at original plate (91 μM) and put into the 4.44 μM labeled microplate containing 123 μl GST-POSH, on splitting apparatus. • Mix by pipetation (3× up and down 115 μl), note time. • Take 7 μl of compounds at 18.2 μM and put into the 910 nM labeled microplate containing 123 μl GST-POSH, on splitting apparatus. • Mix by pipetation (3× up and down 115 μl), note time. • Take 7 μl of compounds at 9.1 μM and put into the 444 nM labeled microplate containing 123 μl GST-POSH, on splitting apparatus. • Mix by pipetation (3× up and down 115 μl), note time. • Take 7 μl of compounds at […] and put into the 91 nM labeled microplate containing 123 μl GST-POSH, on splitting apparatus. • Mix by pipetation (3× up and down 115 μl), note time. • Take 7 μl of compounds at 91.0 nM and put into the 44 nM labeled microplate containing 123 μl GST-POSH, on splitting apparatus. • Mix by pipetation (3× up and down 115 μl), note time. • Incubation 30 minutes at RT. i.

HIV-1 = assay: HIV maturation (budding) in virus-like particle assay, HIV-1 p24 antigen ELISA; format: cell-based; settings: Human immunodeficiency virus 1, read-out: Budding (3 μM)
Text: Compounds were further assessed for effects on maturation of HIV particles in a virus-like particle assay.

c-cbl = c-cbl (Homo sapiens, UniProt P22681); assay: Selectivity (% A in 1 μM), ubiquitin ligase activity of c-cbl; format: biochemical; settings: % activity at 1 μM compound; control is related to 100% activity; HTS protocol
E2 protein = format: biochemical; settings: % activity at 1 μM compound; control is related to 100% activity; HTS protocol
[1] = % activity at 1 μM compound, control is related to 100% activity, HTS protocol

Structure (SMILES) | remaining activity at 1 µM (POSH) [%] | activity at 3 µM (HIV-1) [%] | remaining activity at 1 µM (POSH; [1]) [%] | remaining activity at 1 µM (c-cbl) [%] | Selectivity (% A* in 1 μM) E2 (E2 protein) [%]
Cc1ccc(/N=C/c2cc(Br)cc(Br)c2O)c(C)c1 [Compound 54] | 30 | 54 |  |  | 
Cc1cc([N+](=O)[O-])ccc1/N=C/c1ccc[nH]1 [Compound 70] | 151 | 57 |  |  | 
S=C(c1ccc(-c2cc(Cl)ccc2Cl)o1)N1CCCCC1 [Compound 35] | 44 | 56 |  |  | 
O=C1NC(=O)C(=Cc2ccc(-c3cc(Cl)ccc3Cl)o2)C(=O)N1 [Compound 1] | 19 | 46 |  |  | 
O=c1/c(=C/c2ccc(N3CCOCC3)cc2)sc2nc3ccccc3n12 [Compound 32] | 66 | 67 |  |  | 
CN(C)c1ccc(/C=C2\C(=O)N(c3ccc([N+](=O)[O-])cc3)N=C2N2CCOCC2)cc1 [Compound 42] | 138 | 51 |  |  | 
COc1ccc(N2C(=O)NC(=O)/C(=C\C=C\c3ccccc3)C2=O)cc1 [Compound 8] | 9 | 67 |  |  | 
C=CCN1C(=O)NC(=O)/C(=C\c2ccccc2)C1=O [Compound 2] | 50 | 66 |  |  | 
O=c1nc(-c2ccc(Br)cc2)cc(-c2ccc([N+](=O)[O-])cc2)[nH]1 [Compound 84] | 67 | 47 |  |  | 
Cc1ccc2nsnc2c1/N=C/c1c(O)ccc2ccccc12 [Compound 53] | 12 | 64 |  |  | 
OCc1cccc(/N=C/c2cccc(O)c2O)c1 [Compound 57] | 20 | 61 |  |  | 
CCCCCCOc1ccc(C=C2C(=O)NC(=S)NC2=O)cc1 [Compound 15] | 14 | 52 |  |  | 
Cc1c(C(=O)/C=C/c2cccs2)c2cc(O)ccc2n1C [Compound 76] | 35 | 48 |  |  | 
O=C1C=CC(=O)N1c1ccccc1Cl [Compound 18] | 24 | 41 |  |  | 
Oc1ccc(/N=C/c2cccs2)cc1-c1nc2ccccc2s1 [Compound 71] |  |  | 9 | 84 | 86
COC(=O)c1ccc(N2C(=O)c3cccc(N)c3C2=O)cc1 [Compound 21] |  |  | 83 | 91 | 75
N/N=C\c1ccc(-c2cccs2)s1 [Compound 37] |  |  | 41 | 93 | 97
COc1ccc(CNc2cccc(N(C)C)c2)cc1 [Compound 106] |  |  | 27 | 112 | 88
O=C1/C(=C\c2cccc([N+](=O)[O-])c2)Sc2ccccc21 [Compound 52] |  |  | 80 | 124 | 63
Oc1c(Br)cc(Br)cc1/C=N/c1ccc(Br)cn1 [Compound 61] |  |  | 35 | 133 | 52
CC(C)Oc1ccc(/C=C2/SC(=S)NC2=O)cc1 [Compound 26] |  |  | 69 | 85 | 61
Oc1c(Br)cc(Br)cc1/C=N/c1nc2ccccc2s1 [Compound 62] |  |  | 37 | 134 | 94
Cc1ccc(/C=N/c2ccc(Cl)cc2)o1 [Compound 74] |  |  | 17 | 110 | 96
Oc1c(Cl)cc(Cl)cc1/C=N/c1ccc(-c2nc3ccccc3[nH]2)cc1 [Compound 63] |  |  | 30 | 95 | 109
O=c1oc2cc(O)ccc2cc1-c1csc(-c2ccc(Cl)cc2)n1 [Compound 40] |  |  | 24 | 95 | 117

From patent US7659277B2, “Ubiquitin ligase inhibitors and methods related thereto” (Proteologies, Ltd., priority 2003, dated 2010)
